Reference: patent US7767648B2, “Tissue specific prodrugs” (priority 2000, dated 2010)

Legend:
[1] = test system: TSU prostate cancer cell line; assay: Killing of non-PSMA producing TSU prostate cancer cell line; assay type: cell-based, human
Procedure: The prodrugs are hydrolyzed by PSMA and release the corresponding Asp- or Glu-containing TG analogs or the TG analog itself, and also lack potent cytotoxicity when not metabolized by PSMA. Non-PSMA producing TSU-Pr1 human prostate cancer cell line is exposed to each of the prodrugs at doses that are approximately 50-times the LD50 for the corresponding free TG analog. Against the TSU prostate cancer cell line, 12ADT-Glu has an LD50 value for killing of ˜50 nM.

[2] = Stability of PSMA substrates in mouse plasma, 18 hour incubation, HPLC; assay type: in vitro ADME; settings: 18 hour incubation in mouse plasma
From the text: (§1) In order that the prodrugs can be administered systemically via the blood, their stability in sera must be sufficiently high to avoid hydrolysis or other degradative processes which may occur prior to the prodrugs reaching their target tissues. In addition to GGH activity, a human blood plasma glutamate carboxypeptidase (PGCP) that has significant sequence homology to PSMA and glutamate carboxypeptidase activity has been identified. Therefore, to assay hydrolysis by GGH and other serum carboxypeptidases like PGCP, the APA-Glu*Glu*Glu*Glu*Asp, APA-Glu*Glu*Glu*Glu*Gln, and APA-Glu*Glu*Glu*Glu*Glu substrates were incubated in human and mouse plasma and hydrolysis determined by HPLC analysis after an 18-hour incubation, as shown in Table 3. As noted, GGH efficiently hydrolyzes poly-γ-glutamate chains as well as poly-γ-glutamated folate and methotrexate. GGH, however, is unable to hydrolyze α-linked peptides.
(§2) In Tables 1-3, to simplify identification of the type of amino acid linkages employed, α-linkages are denoted by a hyphen (for example, Glu-Glu) and all side-chain linkages are denoted by a star (for example, Glu*Glu). The column labeled “% PSMA Hydrolysis” refers to the percentage of hydrolysis of a substrate to APA-Asp or to APS-Glu by purified PSMA. The column labeled “% APA-Asp or -Glu” refers to the percentage of hydrolysis of substrate to APA-Asp or APA-Glu. The column labeled “% Prodrug Remaining” refers to the area of the HPLC peak attributable to starting material divided by the areas of HPLC peaks attributable to starting material, intermediate products, and final products. […] “ND” means “not determined,” in that the experiment was not performed.

[3] = test system: TSU cancer cell line; assay: Inhibition of clonogenic survival of TSU cells in presence or absence of exogenous PSMA; assay type: cell-based; settings: exogenous PSMA 10 micrograms/mL, FIG. 4
Procedure: FIG. 4 is a graph of the percentage inhibition of clonogenic survival of TSU cells exposed to various concentrations of APA-Glu*Glu*Glu*Glu*Asp in the presence or absence of PSMA.
The methotrexate analog sequence APA-Glu*Glu*Glu*Glu*Asp was contacted with the non-PSMA producing TSU cancer cell line in various amounts. Exogenous PSMA (10 micrograms/mL) was added to the media and the percent inhibition of clonogenic survival was monitored.

[4] = biological target: PSMA (Homo sapiens, UniProt Q04609); assay: Hydrolysis of methotrexate analog substrates by purified PSMA (HPLC); assay type: biochemical
PSMA, sequence (Q04609 whole entry): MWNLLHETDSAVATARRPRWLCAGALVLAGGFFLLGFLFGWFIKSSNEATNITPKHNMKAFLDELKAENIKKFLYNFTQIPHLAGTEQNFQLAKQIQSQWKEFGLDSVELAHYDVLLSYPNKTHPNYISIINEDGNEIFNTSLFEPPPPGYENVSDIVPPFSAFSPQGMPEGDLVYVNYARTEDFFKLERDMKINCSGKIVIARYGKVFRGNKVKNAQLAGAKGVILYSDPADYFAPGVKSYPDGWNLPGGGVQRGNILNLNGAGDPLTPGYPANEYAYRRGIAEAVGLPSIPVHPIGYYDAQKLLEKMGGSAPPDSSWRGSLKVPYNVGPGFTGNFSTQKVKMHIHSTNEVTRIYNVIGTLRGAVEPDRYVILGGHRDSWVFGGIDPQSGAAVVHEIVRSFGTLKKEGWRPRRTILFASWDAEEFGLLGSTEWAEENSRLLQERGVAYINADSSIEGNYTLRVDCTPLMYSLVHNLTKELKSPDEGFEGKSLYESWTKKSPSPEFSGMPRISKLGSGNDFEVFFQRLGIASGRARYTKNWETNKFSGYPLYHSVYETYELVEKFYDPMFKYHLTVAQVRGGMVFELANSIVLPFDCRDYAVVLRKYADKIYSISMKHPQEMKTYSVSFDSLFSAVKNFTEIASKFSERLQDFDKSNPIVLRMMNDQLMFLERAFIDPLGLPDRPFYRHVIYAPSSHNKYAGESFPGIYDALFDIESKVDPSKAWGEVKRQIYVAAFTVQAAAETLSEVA
Procedure: The extent to which various peptide substrates are hydrolyzed by PSMA was determined by synthesizing a series of methotrexate analogs including the 4-N[N-2,4-diamino-6-pteridinyl-methyl)-N-methylamino-benzoate] (APA) portion of methotrexate coupled to a variety of peptides. Poly-glutamated methotrexate is available from Schirks Laboratories in Jona, Switzerland.
A series of α-linked peptides were investigated for PSMA hydrolysis. […] In Tables 1-3, to simplify identification of the type of amino acid linkages employed, α-linkages are denoted by a hyphen (for example, Glu-Glu) and all side-chain linkages are denoted by a star (for example, Glu*Glu).
Substrate specificity for the pteroyl poly-γ-glutamyl carboxypeptidase (folate hydrolase) activity of PSMA was determined by synthesizing a series of γ-linked methotrexate analogs and assaying them for hydrolysis by PSMA.
as §2

[5] = Stability of PSMA substrates in human plasma, 18 hour incubation, HPLC; assay type: in vitro ADME; settings: 18 hour incubation in human plasma
From the text: as §1, §2

Compound: 8-O-(12-[L-glutamylamino]-dodecanoyl)-8-O-debutanoylthapsigargin [12ADT-Glu]
- LD50 value for killing [1]: approximately 50 nM

Compound: CN(Cc1cnc2nc(N)nc(N)c2n1)c1ccc(C(=O)N[C@@H](CCC(=O)N[C@@H](CCC(=O)N[C@@H](CCC(=O)N[C@@H](CCC(=O)N[C@@H](CC(=O)O)C(=O)O)C(=O)O)C(=O)O)C(=O)O)C(=O)O)cc1 [APA-Glu*Glu*Glu*Glu*Asp]
- % APA-Glu or -Asp [2]: 72%
- selectivity, percent inhibition of clonogenic survival with versus without PSMA [3]: there is selectivity
- % hydrolysis after 24 hours ([4]; Table 2, γ-linked analogs, incubated with PSMA 24 hours): 40.9%
- % hydrolysis after 48 hours ([4]; Table 2, γ-linked analogs, incubated with PSMA 48 hours): 77.7%
- % PSMA hydrolysis 24 h ([4]; Table 3, hydrolysis of substrate to APA-Asp or APA-Glu by purified PSMA, 24 h): 98%
- % PSMA hydrolysis 48 h ([4]; Table 3, hydrolysis of substrate to APA-Asp or APA-Glu by purified PSMA, 48 h): 100%
- hydrolysis by PSMA (in words) ([4]; text summary of the tables): to a greater extent after 24 hours than any of the γ-linked dipeptide analogs
- remaining at 18 h ([5]; HPLC peak area of starting material over all peaks, read-out: % Prodrug Remaining): 20%
- % APA-Glu or -Asp ([5]; hydrolysis of substrate to APA-Asp or APA-Glu): 9%
